What is called pIC50 is −log10 of the IC50, conventionally taken in molar units. Usually pEC50 stands for the EC50 on a negative log10 scale, so that one unit is a factor of ten.

Each structure is given as a SMILES string. pEC50, pIC50: −log10 of the molar value. Like-named read-outs stand apart in the source and are kept apart here. Bounds are passed on as bounds.

Data on 19 molecules can be found in patent publication US11634396B2 (priority 2021, dated 2023).

One test has as its target human mOR (Homo sapiens (Human), UniProt P35372). The test can be described thus: cell-based.
The target of the next test is human dOR (Homo sapiens (Human), UniProt P41143). The test can be described thus: cell-based. To be noted: dOR cAMP Agonist Assay EC50, CHO Tag-lite human dOR stable cell line; forskolin.
A further test concerns the target kOR (OPRK1) (Homo sapiens (Human), UniProt P41145). The test is described as follows: KOR β-Arrestin antagonist assay (Tango OPRK1-bla U2OS cells). It counts as cell-based. An excerpt:
KOR β-Arrestin Agonist and Antagonist assays were preformed using the Tango™ OPRK1-bla U2OS cells from Invitrogen and purchased from ThermoFisher, catalog number K1576.

The mark [1] stands for this setting: CHO Tag-lite human mOR stable cell line, forskolin 4 μM and DAMGO at EC90, read-out: mOR cAMP Antagonist Assay IC50.

Sequence of human mOR (P35372 whole entry): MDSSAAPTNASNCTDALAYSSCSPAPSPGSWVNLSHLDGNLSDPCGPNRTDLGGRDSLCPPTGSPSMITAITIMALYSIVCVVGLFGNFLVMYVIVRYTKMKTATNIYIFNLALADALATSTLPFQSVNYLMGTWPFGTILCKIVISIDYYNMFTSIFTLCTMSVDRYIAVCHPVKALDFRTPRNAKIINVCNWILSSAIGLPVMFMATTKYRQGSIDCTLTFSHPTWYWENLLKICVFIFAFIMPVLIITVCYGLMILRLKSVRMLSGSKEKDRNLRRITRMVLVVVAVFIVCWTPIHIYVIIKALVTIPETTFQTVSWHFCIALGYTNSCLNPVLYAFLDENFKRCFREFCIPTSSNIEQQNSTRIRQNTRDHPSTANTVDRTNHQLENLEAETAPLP
Sequence of kOR (OPRK1) (P41145 whole entry): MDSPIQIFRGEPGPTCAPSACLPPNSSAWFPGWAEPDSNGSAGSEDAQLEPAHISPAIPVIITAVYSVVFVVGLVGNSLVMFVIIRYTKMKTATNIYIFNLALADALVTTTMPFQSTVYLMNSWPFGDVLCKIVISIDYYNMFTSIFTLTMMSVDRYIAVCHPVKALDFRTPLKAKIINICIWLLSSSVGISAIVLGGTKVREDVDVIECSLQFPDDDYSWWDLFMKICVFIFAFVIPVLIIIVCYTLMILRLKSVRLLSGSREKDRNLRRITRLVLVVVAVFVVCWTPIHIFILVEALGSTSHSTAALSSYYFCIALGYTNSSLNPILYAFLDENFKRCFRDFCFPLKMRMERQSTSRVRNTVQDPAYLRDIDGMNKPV
Sequence of human dOR (P41143 whole entry): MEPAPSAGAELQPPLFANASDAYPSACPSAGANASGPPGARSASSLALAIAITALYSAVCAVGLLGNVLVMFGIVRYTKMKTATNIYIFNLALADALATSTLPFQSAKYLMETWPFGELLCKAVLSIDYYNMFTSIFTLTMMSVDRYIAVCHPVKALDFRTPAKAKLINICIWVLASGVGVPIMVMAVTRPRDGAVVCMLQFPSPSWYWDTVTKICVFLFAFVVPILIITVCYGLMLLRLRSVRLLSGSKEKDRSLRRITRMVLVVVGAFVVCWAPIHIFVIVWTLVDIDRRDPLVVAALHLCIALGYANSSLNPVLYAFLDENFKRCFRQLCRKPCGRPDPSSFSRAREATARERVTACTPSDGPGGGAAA

Take `Cc1cc(C(N)=O)cc(C)c1C[C@@H](CNC(=O)C[C@@H](c1ccccc1)C1(C(F)(F)F)CC1)N(C)C` [Compound 7, 4-((S)-2-(dimethylamino)-3-((S)-3-phenyl-3-(1-(trifluoromethyl)cyclopropyl)propanamido)propyl)-3,5-dimethylbenzamide]: the pIC50 is less than 5.52 at human mOR (setting [1]) and more than 6.52 on kOR (OPRK1). Besides, on human dOR, the pEC50 was more than 6.52.

With `Cc1cc(C(N)=O)cc(C)c1C[C@@H](CNC(=O)C[C@H](c1ccccc1)C1(C(F)(F)F)CC1)N(C)C` [Compound 8, 4-((S)-2-(dimethylamino)-3-((R)-3-phenyl-3-(1-(trifluoromethyl)cyclopropyl)propanamido)propyl)-3,5-dimethylbenzamide], the pIC50 on human mOR (setting [1]) is less than 5.52; on kOR (OPRK1), more than 6.52. In addition, the pEC50 on human dOR was less than 5.52.

For `CN(C)[C@H](CNC(=O)CC(c1cccnc1)C1(C(F)(F)F)CC1)Cc1ccc(C(N)=O)cc1Cl` (stereo partly drawn) [Compound 38, 3-chloro-4-[(2S)-2-(dimethylamino)-3-[3-(pyridin-3-yl)-3-[1-(trifluoromethyl)cyclopropyl]propanamido]propyl]benzamide], the pIC50 on human mOR and at kOR (OPRK1) was more than 6.52 in each case.

Turning to `CN(C)[C@H](CNC(=O)C[C@@H](c1cccnc1)C1(C(F)(F)F)CC1)Cc1ccc(C(N)=O)cc1Cl` [Compound 41, 3-chloro-4-((S)-2-(dimethylamino)-3-((S)-3-(pyridin-3-yl)-3-(1-(trifluoromethyl)cyclopropyl)propanamido)propyl)benzamide], the pIC50 on human mOR and against kOR (OPRK1) was more than 6.52 in each case.

As to `COc1ccc(C(CC(=O)NC[C@H](Cc2cc(F)c(C(N)=O)c(F)c2)N(C)C)C2(C(F)(F)F)CC2)cn1` (stereo partly drawn) [Compound 49, 4-[(2S)-2-(dimethylamino)-3-[3-(6-methoxypyridin-3-yl)-3-[1-(trifluoromethyl)cyclopropyl]propanamido]propyl]-2,6-difluorobenzamide], the figures for the pIC50 on human mOR and on kOR (OPRK1) were less than 5.52 and more than 6.52, respectively.

Consider `Cc1ncc([C@@H](CC(=O)NC[C@H](Cc2ccc(C(N)=O)c(F)c2)N2CCCC2)C2(C(F)(F)F)CC2)cn1` [Compound 65, 2-fluoro-4-((S)-3-((R)-3-(2-methylpyrimidin-5-yl)-3-(1-(trifluoromethyl)cyclopropyl)propanamido)-2-(pyrrolidin-1-yl)propyl)benzamide], for which the negative logarithm of the IC50 (pIC50) at human mOR is less than 5.52; on kOR (OPRK1), 5.52 to 6.52.

Consider `CN(C)[C@H](CNC(=O)C[C@@H](CC1CC1)c1cccnc1)Cc1ccc(C(N)=O)c(F)c1` [Compound 66, 4-((S)-3-((R)-4-cyclopropyl-3-(pyridin-3-yl)butanamido)-2-(dimethylamino)propyl)-2-fluorobenzamide], for which the pIC50 at human mOR and against kOR (OPRK1) was more than 6.52 in each case.

As to `CN(C)[C@H](CNC(=O)CC(c1cncnc1)C1(C(F)(F)F)CC1)Cc1ccc(C(N)=O)c(F)c1` (stereo partly drawn) [Compound 72, 4-[(2S)-2-(dimethylamino)-3-[3-(pyrimidin-5-yl)-3-[1-(trifluoromethyl)cyclopropyl]propanamido]propyl]-2-fluorobenzamide], the pIC50 on human mOR (setting [1]) and at kOR (OPRK1) was more than 6.52 each time.

For `CN(C)[C@H](CNC(=O)CC(c1ncc(Cl)cn1)C1(C(F)(F)F)CC1)Cc1ccc(C(N)=O)c(F)c1` (stereo partly drawn) [Compound 73, 4-[(2S)-3-[3-(5-chloropyrimidin-2-yl)-3-[1-(trifluoromethyl)cyclopropyl]propanamido]-2-(dimethylamino)propyl]-2-fluorobenzamide], the negative logarithm of the IC50 (pIC50) on human mOR and against kOR (OPRK1) was more than 6.52 each time.

As for `CN(C)[C@H](CNC(=O)CC(c1cccnc1)C1(C(F)(F)F)CC1)Cc1ccc(C(N)=O)c(F)c1` (stereo partly drawn) [Compound 74, 4-[(2S)-2-(dimethylamino)-3-[3-(pyridin-3-yl)-3-[1-(trifluoromethyl)cyclopropyl]propanamido]propyl]-2-fluorobenzamide], the pIC50 was less than 5.52 at human mOR and more than 6.52 on kOR (OPRK1).

In the case of `Cc1ccc([C@@H](CC(=O)NC[C@H](Cc2ccc(C(N)=O)c(F)c2)N(C)C)C2(C(F)(F)F)CC2)cn1` [Compound 75, 4-[(2S)-2-(dimethylamino)-3-[(3R)-3-(6-methylpyridin-3-yl)-3-[1-(trifluoromethyl)cyclopropyl]propanamido]propyl]-2-fluorobenzamide], the pIC50 on human mOR and against kOR (OPRK1) was more than 6.52 each time.

Consider `CN(C)[C@H](CNC(=O)CC(c1cncc(F)c1)C1(C(F)(F)F)CC1)Cc1ccc(C(N)=O)c(F)c1` (stereo partly drawn) [Compound 76, 4-[(2S)-2-(dimethylamino)-3-[3-(5-fluoropyridin-3-yl)-3-[1-(trifluoromethyl)cyclopropyl]propanamido]propyl]-2-fluorobenzamide], for which the pIC50 was less than 5.52 on human mOR and more than 6.52 at kOR (OPRK1).

`CN(C)[C@H](CNC(=O)C[C@H](c1ccccn1)C1(C(F)(F)F)CC1)Cc1ccc(C(N)=O)cc1` [Compound 81, 4-((S)-2-(dimethylamino)-3-((S)-3-(pyridin-2-yl)-3-(1-(trifluoromethyl)cyclopropyl)propanamido)propyl)benzamide]: the pIC50 on human mOR and against kOR (OPRK1) was more than 6.52 throughout.

Take `CN(C)[C@H](CNC(=O)C[C@@H](c1ccccn1)C1(C(F)(F)F)CC1)Cc1ccc(C(N)=O)cc1` [Compound 84, 4-[(2S)-2-(dimethylamino)-3-[(3R)-3-(pyridin-2-yl)-3-[1-(trifluoromethyl)cyclopropyl]propanamido]propyl]benzamide]: the pIC50 on human mOR and at kOR (OPRK1) was more than 6.52 in each case.

Turning to `CN[C@H](CNC(=O)C[C@H](c1ccccc1)C1(C(F)(F)F)CC1)Cc1ccc(C(N)=O)cc1` [Compound 85, 4-[(2S)-2-(methylamino)-3-[(3R)-3-phenyl-3-[1-(trifluoromethyl)cyclopropyl]propanamido]propyl]benzamide], the pIC50 at human mOR and at kOR (OPRK1) was more than 6.52 in each case.

Take `CNC(=O)c1ccc(C[C@@H](CNC(=O)CC(c2ccccn2)C2(C(F)(F)F)CC2)N(C)C)c(C)c1` (stereo partly drawn) [Compound 141, 4-((2S)-2-(dimethylamino)-3-(3-(pyridin-2-yl)-3-(1-(trifluoromethyl)cyclopropyl)propanamido)propyl)-N,3-dimethylbenzamide]: the pIC50 on human mOR and on kOR (OPRK1) was more than 6.52 each time.

As for `CN(C)[C@H](CNC(=O)C[C@H](c1cccnc1)C1(C(F)(F)F)CC1)Cc1ccc(O)cc1C(F)(F)F` [Compound 255, (R)-N-((S)-2-(dimethylamino)-3-(4-hydroxy-2-(trifluoromethyl)phenyl)propyl)-3-(pyridin-3-yl)-3-(1-(trifluoromethyl)cyclopropyl) propanamide], the pIC50 on human mOR was more than 6.52; against kOR (OPRK1) it was less than 5.52.

Take `COc1ccc(C(CC(=O)NC[C@H](Cc2ccc(O)cc2C)N(C)C)C2(C(F)(F)F)CC2)cn1` (stereo partly drawn) [Compound 273, N-((S)-2-(dimethylamino)-3-(4-hydroxy-2-methylphenyl)propyl)-3-(6-methoxypyridin-3-yl)-3-(1-(trifluoromethyl)cyclopropyl) propanamide]: the pIC50 at human mOR and against kOR (OPRK1) was more than 6.52 in each case.

Take `Cc1cc(O)cc(C)c1C[C@@H](CNC(=O)CC(c1cccnc1)C1(C(F)(F)F)CC1)N(C)C` (stereo partly drawn) [Compound 316, N-((S)-2-(dimethylamino)-3-(4-hydroxy-2,6-dimethylphenyl)propyl)-3-(pyridin-3-yl)-3-(1-(trifluoromethyl)cyclopropyl)propanamide]: the pIC50 on human mOR and on kOR (OPRK1) was more than 6.52 in each case.
